Test results from patent publication US5602161A, “Tetrazolylphenyl pivalate derivatives and medicinal composition containing the same as effective component” (Wakamoto Pharmaceutical Co., Ltd., priority 1994, dated 1997).
Structures can show the parent of a compound that is named as a salt. Where two headings read alike, the source gives them in different places.

Columns and labels:
[1] = biological target: T1, human neutrophil elastase (Homo sapiens, UniProt P08246); test: Inhibitory effect on elastase (human neutrophil), spectrophotometric assay with MeOSuc-Ala-Ala-Pro-Val-pNA; type: biochemical; conditions: N: human neutrophil elastase; pH 8.0, 37° C.; read-out: IC50
T1 construct: using elastase from human neutrophil or human sputum; from tissue; host or cells: human neutrophil
T1 sequence (P08246 30-247 limits assumed): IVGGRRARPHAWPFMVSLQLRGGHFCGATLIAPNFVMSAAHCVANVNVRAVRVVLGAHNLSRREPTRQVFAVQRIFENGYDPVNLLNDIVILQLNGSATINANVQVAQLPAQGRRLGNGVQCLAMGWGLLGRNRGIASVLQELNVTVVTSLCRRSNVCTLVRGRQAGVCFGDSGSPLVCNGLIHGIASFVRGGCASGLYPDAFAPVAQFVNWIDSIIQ
Method: (§1) Namely, it is a spectrophotometric assay using the synthesized substrate, methoxysuccinyl-alanyl-alanyl- prolyl-valyl-p-nitroanilide(MeOSuc-Ala-Ala-Pro-Val-pNA, Cambridge research biochemical Co.) which has high specificity on neutrophil elastase.
(§2) 20 μl of a test compound of various concentrations and 20 μl of enzyme solution (13 unit/ml) were added to 400 μl of 0.1M sodium phosphate buffer (pH 8.0). The mixture was incubated at 37° C. for 5 min, and then 20 μl of the substrate was added to the mixture in a final volume of 460 μl. The reaction was conducted by incubating thus obtained mixture at 37° C. for 20 min. The reaction was stopped by the addition of 300 μl of 20% acetic acid into the reaction mixture, and then p-nitroanilide released was measured by the spectrophotometrically at 405 nm.
(§3) Inhibition percents of the test compounds were calculated by the following equation:
(§4) Inhibition %=[1-(OD 405 nm value of the testing sample-background)/(OD 405 nm value of the control-background)]×100

[2] = biological target: T2, human sputum elastase (Homo sapiens, UniProt P08246); test: Inhibitory effect on elastase (human sputum), spectrophotometric assay with MeOSuc-Ala-Ala-Pro-Val-pNA; type: biochemical; conditions: S: human sputum elastase; pH 8.0, 37° C.; read-out: IC50
T2 sequence (P08246 30-247 limits assumed): T1 sequence (P08246 30-247 limits assumed)
Method: as §1, §2, §3, §4

[3] = Cytotoxicity test (MTT, three days); type: cell-based; conditions: mouse, l1210 cells, read-out: Survival rate; for viability at 72 h, 1 µM: final concentration 1 μM; for viability at 72 h, 5 µM: final concentration 5 μM; for viability at 72 h, 10 µM: final concentration 10 μM
Method: L1210 (lymphocytic leukemia, mouse) cells in a logarithmic growth phase were collected and washed twice with HBSS (Hanks' balanced salt solution). The L1210 cells were resuspended at 5.0×10^4 cells/ml in RPMI 1640 medium containing 10% heat-inactivated fetal bovine serum. The cell suspension was dispensed in 100 μl aliquots into 96 well multi-plate. Each of compounds to be tested was dissolved in dimethylsulfoxide at a concentration of 10 mM. The solutions were stepwise diluted with RPMI 1640 solution containing 10% heat-inactivated fetal bovine serum. Each of the diluted samples was dispensed in an amount of 10 μl well in the 96 well multi-plate containing L1210 cells and incubated for three days at 37° C. in humidified 5% CO2 -air mixture. To each of the wells, 10 μl of MTT (3-(4,5-dimethylthiazol-2-yl)-2,5-diphenyltetrazolium bromide)(5 mg/ml in phosphate buffer free of Ca^2+ and Mg^2+) was added. Cultivation was continued for additional five hours at 37° C. in humidified 5% CO2 -air mixture. To each of the wells, 100 μl of 20% SDS (sodium dodecyl sulfate) in 0.01N HCl was added to solubilize the MTT formazan.
Absorbance was measured at 630 nm as a reference wavelength and 570 nm as a measuring wavelength using Corona Electric MTP22 Microplate Photometer. The measurement was conducted three times for each of the samples to obtain an average value and a standard deviation. Survival rate was calculated by the following equation:
Survival rate (5)=[(absorbance of test sample)/(absobance of […]

[4] = system: endotoxin induced acute lung injury in mice; test: Inhibitory effect on endotoxin induced acute lung injury in mice; type: in vivo, ICR mice; conditions: Mus musculus, oral 10 mg/Kg at 1.5 hr before and 4.5~5.0 hr after LPS (25 μg/site), BAL fluid at 19~20 hrs
Method: ICR mice (25~30 g, .male., n=7) were used.
The test compounds were suspended at 0.1% in 0.5% sodium carboxymethylcellulose-saline.
Oral administration of the test compounds were given at 10 mg/Kg at 1.5 hr before an intratracheal instillation of LPS (E.coli, 055:B5, Difico, 25 μg/site). After sodium pentobarbital anesthetized, LPS dissolved in sterile saline was instilled intratracheally via a ventral neck in the throat incisionusing with a 250 μl syringe attached to a 27-gauge needle.
The throat incisions were sutured with surgical threads, and PI-compound was administered with the same mannner as described above 4.5~5.0 hr after LPS instillation.
Up 19~20 hrs after LPS instillation, animals were euthanized by an i.p. pentobarbital overdose, each animal trachea was reexposed and the ventral neck region was small incised.
A 10 cm length of small-diameter (O.D=0.5 mm) polyethylene catheter inserted and held in place using surgical suture. The lung was then lavaged with a single 500 μl sterile saline using a 1 ml syringe by gently expanding the lung and then withdrawing the saline. The same operation was repeated 6 times, yielding a final volume of 3 ml bronchoalveolar lavage (BAL) fluid from each animal.
Evaluation of testing compounds were expressed as inhibitory percent of hemorrhage and leukocyte infiltration in the lung of each animals.
Estimation for hemorrhage:
Red blood cells were bursted with adding 50 μl KCN solution (0.33 %) per 1 ml of BAL fluid, and then the amount of blood in each BAL fluid samples were calculated from a hemoglobin standard curve.
Estimation of leukocyte infiltrations:
BAL fluid was diluted to 100 fold with a balanced electrolyte solution and KCN solution (0.33%) was added to the diluted BAL fluid for lysis of contaminating red blood cells.
Leukocyte number was determined from the average of the three times count using a particle counter.
The inhibitory effect of testing compounds were calculated from thefollowing equation:
Inhibitory percent=[1-(The average value of the test compound group)/(The
average value of the control group)]×100
The control animals were dosed orally with the same amount of the vehicle before and after intratracheal instillation of LPS and were operated with the same manner as the animals tested with the test compounds.

[5] = Leukocyte, read-out: Inhibitory percent of leukocyte infiltration
[6] = read-out: Inhibitory percent of hemorrhage

Structure (SMILES): CC(C)(C)C(=O)Oc1ccc(-c2nnn(CC(=O)Nc3ccccc3)n2)cc1 [Example 11, 4-[2-(N-Phenylcarbamoylmethyl)tetrazol-5-yl]phenyl pivalate]
- IC50 [1]: 850 nM

Structure (SMILES): CC(C)(C)C(=O)Oc1ccc(-c2nnn(CC(=O)N3CCCCC3)n2)cc1 [Example 12, 4-[2-(Piperidinocarbonylmethyl)tetrazol-5-yl]phenyl pivalate]
- IC50 [1]: 510 nM

Structure (SMILES): COc1ccc(Cn2nnc(-c3ccc(OC(=O)C(C)(C)C)cc3)n2)cc1 [Example 13, 4-[2-(4-Methoxybenzyl)tetrazol-5-yl]phenyl pivalate]
- IC50 [1]: 72 nM

Structure (SMILES): CC(C)(C)C(=O)Oc1ccc(-c2nnn(CCc3ccccc3)n2)cc1 [Example 14, 4-[2-(2-Phenylethyl)tetrazol-5-yl]phenyl pivalate]
- IC50 [1]: 76 nM

Structure (SMILES): CC(C)(C)C(=O)Oc1ccc(-c2nnn(COCc3ccccc3)n2)cc1 [Example 15, 4-[2-(Benzyloxymethyl)tetrazol-5-yl]phenyl pivalate]
- IC50 [1]: 94 nM

Structure (SMILES): CC(C)(C)C(=O)Oc1ccc(-c2nnn(Cc3ccc(C(F)(F)F)cc3)n2)cc1 [Example 17, 4-[2-(4-Trifluoromethylbenzyl)tetrazol-5-yl]phenyl pivalate]
- IC50 [1]: 100 nM

Structure (SMILES): COc1ccc(COc2ccc(Cn3nnc(-c4ccc(OC(=O)C(C)(C)C)cc4)n3)cc2)cc1 [Example 18, 4-[2-[4-(4-Methoxybenzyloxy)benzyl]tetrazol-5-yl]phenyl pivalate]
- IC50 [1]: 17 nM
- IC50 [2]: 160 nM

Structure (SMILES): COc1ccc(CCCn2nnc(-c3ccc(OC(=O)C(C)(C)C)cc3)n2)cc1 [Example 20, 4-[2-[3-(4-Methoxyphenyl)propyl]tetrazol-5-yl]phenyl pivalate]
- IC50 [1]: 90 nM

Structure (SMILES): COc1ccc(CCCCn2nnc(-c3ccc(OC(=O)C(C)(C)C)cc3)n2)cc1 [Example 21, 4-[2-[4-(4-Methoxyphenyl)butyl]tetrazol-5-yl]phenyl pivalate]
- IC50 [1]: 62 nM

Structure (SMILES): COc1ccc(COCCCCn2nnc(-c3cccc(OC(=O)C(C)(C)C)c3)n2)cc1 [Example 23, 3-[2-[4-(4-Methoxybenzyloxy)butyl]tetrazol-5-yl]phenyl pivalate]
- IC50 [1]: 22 nM
- viability at 72 h, 1 µM [3]: 104%
- viability at 72 h, 5 µM [3]: 102%
- viability at 72 h, 10 µM [3]: 94.3%

Structure (SMILES): COC(=O)c1ccccc1Cn1nnc(-c2ccc(OC(=O)C(C)(C)C)cc2)n1 [Example 24, 4-[2-(2-Methoxycarbonylbenzyl)tetrazol-5-yl]phenyl pivalate]
- IC50 [1]: 100 nM

Structure (SMILES): COc1ccc(COCCn2nnc(-c3ccc(OC(=O)C(C)(C)C)cc3)n2)cc1 [Example 41, 4-[2-[2-(4-Methoxybenzyloxy)ethyl]tetrazol-5-yl]phenyl pivalate]
- IC50 [1]: 65 nM

Structure (SMILES): COc1ccc(CCn2nnc(-c3ccc(OC(=O)C(C)(C)C)cc3)n2)cc1 [Example 44, 4-[2-[2-(4-Methoxyphenyl)ethyl]tetrazol-5-yl]phenyl pivalate]
- IC50 [1]: 85 nM

Structure (SMILES): CN(C)CCOc1ccc(Cn2nnc(-c3ccc(OC(=O)C(C)(C)C)cc3)n2)cc1 [Example 46, 4-[2-[4-(2-Dimethylaminoethoxy)benzyl]tetrazol-5-yl]phenyl pivalate Hydrochloride]
- IC50 [1]: 89 nM

Structure (SMILES): CN(C)Cc1ccc(Cn2nnc(-c3ccc(OC(=O)C(C)(C)C)cc3)n2)cc1 [Example 47, 4-[2-[4-(Dimethylaminomethyl)benzyl]tetrazol-5-yl]phenyl pivalate]
- IC50 [2]: 140 nM
- inhibition in vivo at 10 mg/kg [4, 5]: 61.5%
- inhibition in vivo at 10 mg/kg [4, 6]: 48.6%

Structure (SMILES): COc1cc(-c2nnn(Cc3ccc(N(C)C)cc3)n2)ccc1OC(=O)C(C)(C)C [Example 48, 4-[2-[4-(Dimethylamino)benzyl]tetrazol-5-yl]-2-methoxyphenyl pivalate]
- IC50 [2]: 700 nM
- viability at 72 h, 1 µM [3]: 99.4%
- viability at 72 h, 5 µM [3]: 94.6%
- viability at 72 h, 10 µM [3]: 86.1%

Structure (SMILES): Cc1cc(-c2nnn(Cc3ccc(N(C)C)cc3)n2)ccc1OC(=O)C(C)(C)C [Example 49, 4-[2-[4-(Dimethylamino)benzyl]tetrazol-5-yl]-2-methylphenyl pivalate]
- IC50 [2]: 700 nM
- viability at 72 h, 1 µM [3]: 103%
- viability at 72 h, 5 µM [3]: 105%
- viability at 72 h, 10 µM [3]: 110%

Structure (SMILES): CC(C)(C)C(=O)Oc1ccc(-c2nnn(C(C(=O)OCc3ccccc3)c3ccccc3)n2)cc1 (stereo not drawn) [Example 51, 4-[2-[α-(Benzyloxycarbonyl)benzyl)tetrazol-5-yl]phenyl pivalate]
- IC50 [2]: 38 nM
- inhibition in vivo at 10 mg/kg [4, 5]: 20.5%
- inhibition in vivo at 10 mg/kg [4, 6]: 57%

Structure (SMILES): CC(C)(C)C(=O)Oc1ccc(-c2nnn(Cc3ccc(C(=O)O)cc3)n2)cc1 [Example 54, 4-[5-(4-Pivaloyloxyphenyl)tetrazol-2-ylmethyl]benzoic acid]
- IC50 [2]: 56 nM
- viability at 72 h, 1 µM [3]: 101%
- viability at 72 h, 5 µM [3]: 107%
- viability at 72 h, 10 µM [3]: 100%

Structure (SMILES): CC(C)(C)C(=O)Oc1ccc(-c2nnn(Cc3ccc(C(=O)N4CCC[C@H]4C(=O)O)cc3)n2)cc1 [Example 59, N-[4-[5-(4-pivaloyloxyphenyl)tetrazol-2-ylmethyl]benzoyl]-L-Proline]
- IC50 [2]: 40 nM
- inhibition in vivo at 10 mg/kg [4, 5]: 58.8%
- inhibition in vivo at 10 mg/kg [4, 6]: 81.5%

Structure (SMILES): CC(C)(C)C(=O)Oc1ccc(-c2nnn(Cc3ccccc3C(=O)NCC(=O)O)n2)cc1 [Example 63, N-[2-[5-(4-Pivaloyloxyphenyl)tetrazol-2-ylmethyl]benzoyl]glycine]
- IC50 [1]: 300 nM
- viability at 72 h, 1 µM [3]: 105%
- viability at 72 h, 5 µM [3]: 103%
- viability at 72 h, 10 µM [3]: 100%

Structure (SMILES): CC(C)[C@H](NC(=O)c1ccc(Cn2nnc(-c3ccc(OC(=O)C(C)(C)C)cc3)n2)cc1)C(=O)O [Example 67, N-[4-[5-(4-Pivaloyloxyphenyl)tetrazol-2-ylmethyl]benzoyl]-L-valine]
- IC50 [2]: 130 nM
- viability at 72 h, 1 µM [3]: 92.2%
- viability at 72 h, 5 µM [3]: 100%
- viability at 72 h, 10 µM [3]: 90.1%

Structure (SMILES): CC(C)(C)C(=O)Oc1ccc(-c2nnn(C(C(=O)O)c3ccccc3)n2)cc1 (stereo not shown) [Example 69, 2-Phenyl-2-[5-(4-pivaloyloxyphenyl)tetrazol-2-yl]acetic acid]
- IC50 [2]: 820 nM
- viability at 72 h, 1 µM [3]: 96.7%
- viability at 72 h, 5 µM [3]: 105%
- viability at 72 h, 10 µM [3]: 101%

Structure (SMILES): CC(C)(C)C(=O)Oc1ccc(-c2nnn(CCCCCO)n2)cc1 [Example 74, 4-[2-(5-Hydroxypentyl)tetrazol-5-yl]phenyl pivalate]
- IC50 [1]: 98 nM

Structure (SMILES): CC(C)(C)C(=O)Oc1ccc(-c2nnn(Cc3ccc(O)cc3)n2)cc1 [Example 75, 4-[2-(4-Hydroxybenzyl)tetrazol-5-yl]phenyl pivalate]
- IC50 [1]: 80 nM

Structure (SMILES): CC(C)(C)C(=O)Oc1ccc(-c2nnn(Cc3ccccc3N)n2)cc1 [Example 78, 4-[2-(2-Aminobenzyl)tetrazol-5-yl]phenyl pivalate]
- IC50 [2]: 91 nM
- viability at 72 h, 1 µM [3]: 103%
- viability at 72 h, 5 µM [3]: 107%
- viability at 72 h, 10 µM [3]: 93.7%

Structure (SMILES): CC(C)(C)C(=O)Oc1ccc(-c2nnn(CCCCC(=O)O)n2)cc1 [Example 93, 5-[5-(4-Pivaloyloxyphenyl)tetrazol-2-yl]valeric acid]
- IC50 [1]: 520 nM
